Assay results as given in patent publication US20200170259A1, “COMPOSITIONS AND METHODS FOR INDUCING PLANT GENE EXPRESSION AND ALTERING PLANT MICROBIOME COMPOSITION FOR IMPROVED CROP PERFORMANCE” (ADVANCED BIOLOGICAL MARKETING, INC., priority 2018, published 2020).

What was measured:
rhizosphere inhabitants = conditions: in vivo
Protocol: A survey of rhizosphere inhabitants in a corn trial with control, Trichoderma strain treatment for corn (2 ABM Trichoderma strains), [MUT] (ABM Trichoderma+Bacillus strains), or Trichoderma metabolite (1-Octene-3-ol) seed treatments was made. The organism lifestyle metadata were analyzed for each treatment.

corn gene expression = experiment: RNAseq of corn seedlings, variability of gene expression (FIGS. 17-19); assay type: in vivo
Description: Plants colonized by Trichoderma show highly focused and reproducible patterns of gene expression. Uncolonized plants show highly variable gene expression. We propose that gene expression in plants colonized by Trichoderma responds specifically to that colonization and further that Trichoderma redirects plant gene expression to more targeted biological processes supporting Trichoderma niche development. Gene expression in uncolonized plants responds to the entire set of environmental factors present with relatively little process hierarchy. FIG. 17 depicts a representation of all gene expression in corn seedlings exposed to various seed treatments versus an untreated seed in both standard and drought conditions. FIG. 17 further groups the applicable replicates in order to convey variability, and data sets refer to principal component analysis, in order to evidence variability. All samples with the exception of the Trichoderma metabolite (1-Octene-3-ol), are root apical meristem (RAM) measurements. The sampling occurred from seeds that were grown for seven days before sampling. Observed variability was high in corn gene expression in standard and drought conditions. (See untreated). […] (see SabrEx and Oct). Thus, untreated plants are busy responding to a lot of environmental factors, Trichoderma strain treatment/1-Octene-3-ol treated plants are controlled somewhat by the treatment, which supports findings in previous RNAseq experiments, where correlation is shown by the reduction in microbiome diversity in the field, in the reduction of error bars in field performance data. This is a clear benefit of Trichoderma strain treatment and metabolite (1-Octene-3-ol). Reduction of variable performance in the field is therefore because the plant gene expression has been remodeled or refined by Trichoderma. FIGS. 18A-B depict multidimensional scaling plots of corn gene expression when colonized by Trichoderma, particularly, 2-Trichoderma strain treatment and untreated in unstressed conditions. […]

maize gene expression = experiment: Differential gene expression (Blast 2Go DGE) in maize versus control (FIGS. 20-25); assay type: in vivo
Protocol: Turning to FIGS. 20-24, differential gene expression (Blast 2Go DGE) is measured, wherein the corresponding legend of FIG. 20 presents comparison to a control, wherein the higher scale shown (color or patterned), the higher level of upregulation has occurred.
The lab plants were grown in conical tubes with nutrient bath and to simulate osmotic stress from drought they added a polyethylene glycol (PEG) solution to the tubes.
FIG. 25 depicts a table of changes in corn gene expression versus an untreated control in RNAseq experiments of FIGS. 20-24. Reference to “Lab (sterile, no soil)” is the data from the conical tube experiments of FIG. 23 and FIG. 24.

Structure (SMILES): C=CC(O)CCCCC (centres unmarked) [1-Octene-3-ol]
- Plant disease resulting from rhizosphere pathogens (rhizosphere inhabitants): did not result in plant disease
- Reproducibility of expression pattern (multidimensional scaling plot) (corn gene expression; FIGS. 18A-B, unstressed conditions per legend): generally more reproducible expression pattern than the untreated
- Reproducibility of expression pattern (multidimensional scaling plot) (corn gene expression; FIGS. 19A-B, drought conditions per legend): generally more reproducible expression pattern than the untreated
- Effect on variability of overall corn gene expression (principal component analysis) (corn gene expression; seedlings grown seven days, standard and drought conditions, FIG. 17): focusses gene expression
- Shoot responses upregulated (maize gene expression): Abiotic stimulus, water deprivation, and chemical stimulus
